Tests used:
trehalose phosphorylase [1] = target: T1, trehalose phosphorylase (Thermoanaerobacter brockii, UniProt Q8L164); experiment: Transglucosylation to glucuronic acid and C-6DGs by trehalose phosphorylase (GC analysis); assay type: biochemical, Thermoanaerobium brockii; conditions: 1% (w/v) glucuronic acid or C-6DG as acceptor, 1.4% (w/v) β-G1P, one unit/ml enzyme, pH 6.0, 50° C., 24 hours; peak area of transferred product to total peak area
T1 construct: cells collected from the culture were disrupted by ultrasonication and then, the supernatant was collected; made in house; host or cells: Thermoanaerobium brockii ATCC 35047 (natural producer, not recombinant); purified by DEAE, butyl and gel filtration chromatography
T1 sequence (Q8L164 1-774): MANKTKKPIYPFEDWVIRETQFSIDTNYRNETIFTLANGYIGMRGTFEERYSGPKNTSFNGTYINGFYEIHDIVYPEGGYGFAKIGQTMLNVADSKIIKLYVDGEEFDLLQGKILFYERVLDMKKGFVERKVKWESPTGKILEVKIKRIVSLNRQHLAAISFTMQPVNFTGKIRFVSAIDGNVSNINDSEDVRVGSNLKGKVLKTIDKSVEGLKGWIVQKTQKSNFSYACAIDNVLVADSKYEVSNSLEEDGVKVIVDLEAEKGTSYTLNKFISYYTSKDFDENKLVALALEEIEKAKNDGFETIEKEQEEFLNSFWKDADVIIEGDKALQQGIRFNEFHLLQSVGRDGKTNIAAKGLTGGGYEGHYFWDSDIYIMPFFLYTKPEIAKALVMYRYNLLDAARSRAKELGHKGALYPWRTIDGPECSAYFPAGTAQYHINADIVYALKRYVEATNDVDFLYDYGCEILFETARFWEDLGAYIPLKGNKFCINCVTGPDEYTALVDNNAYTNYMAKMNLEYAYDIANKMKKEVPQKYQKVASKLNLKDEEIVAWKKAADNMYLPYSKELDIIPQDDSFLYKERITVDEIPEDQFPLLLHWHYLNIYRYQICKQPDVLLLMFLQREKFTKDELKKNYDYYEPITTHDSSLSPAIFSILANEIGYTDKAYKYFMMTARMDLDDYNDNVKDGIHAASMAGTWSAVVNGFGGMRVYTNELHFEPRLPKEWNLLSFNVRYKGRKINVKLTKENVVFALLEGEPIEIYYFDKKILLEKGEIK
Method: (§1) An aqueous solution containing 1% (w/v) of either of polyalcohols (all reagent grade), shown in Table 1 below, 1.4% (w/v) of a reagent grade β-G1P, one unit/ml of trehalose phosphorylase obtained in Example 1-1, and 50 mM acetate buffer (pH 6.0) was prepared and followed by the enzyme reaction while keeping the solution at 50° C. for 24 hours. After the reaction, a portion of each reaction mixture was withdrawn, dried, and dissolved in pyridine for gas chromatography analysis (hereinafter, simply abbreviated as “GC”). In GC analysis, a stainless steel column (internal diameter 3 mm×length 2 m) packed with 2% Silicon OV-17/Chromosorb W”, commercialized by GL Science, Tokyo, Japan) was used. Nitrogen gas was used as carrier gas and the flow rate was set to 40 ml/min. A column oven was controlled to rise a column temperature at 160° C. to 320° C. in a rate of 7.5° C./min after the injection of samples. A hydrogen-flame ion detector was used for the detection. An aqueous solution with the same composition except for trehalose phosphorylase was prepared, kept with the same condition described above, and analyzed by GC by the same condition to confirm the chromatogram of non-reacted polyalcohol and β-G1P. Transfer of a glucosyl residue to each polyalcohol was judged by detecting new peak(s) in the chromatogram of the reaction mixture. The amount of glucosyl-transferred polyalcohol formed by the reaction was estimated based on a peak area of the glucosyl-transferred polyalcohol to the total peak area including that of non-reacted (residual) polyalcohol, and classified into three groups of the area of 60% or higher, “+++”; 30% or higher but less than 60%, “++”; and 0% or higher but less than 30%, “+”.
An aqueous solution containing 1% (w/v) of any one of glucuronic acid or C-6DGs (all reagent grade), shown in Table 2 below, 1.4% (w/v) of a reagent grade β-G1P, one unit/ml of trehalose phosphorylase obtained in Example 1-1, and 50 mM acetate buffer (pH 6.0) was prepared and followed by the enzyme reaction while keeping the solution at 50° C. for 24 hours. After the reaction, each reaction mixture was analyzed by GC described in Example 1-2. In the same manner as described in Example 1-2, the amount of a glucosyl-transferred product formed by the reaction was estimated based on a peak area of the glucosyl-transferred product to the total peak area including that of non-reacted (remaining) glucuronic acid or C-6DGs, and classified into three groups of the area of 60% or higher, “+++”; 30% or higher but less than 60%, “++”; and 0% or higher but less than 30%, “+”.

trehalose phosphorylase [2] = target: T1, trehalose phosphorylase; experiment: Transglucosylation to polyalcohols by trehalose phosphorylase (GC analysis); assay type: biochemical, Thermoanaerobium brockii; design: key to Transfer of a glucosyl residue (Transglucosylation): +++: the area of 60% or higher; ++: 30% or higher but less than 60%; +: 0% or higher but less than 30%; −: Transglucosylation was not detected; conditions: 1% (w/v) polyalcohol as acceptor, 1.4% (w/v) β-G1P, pH 6.0, 50° C., 24 hours; for Transfer of a glucosyl residue (Transglucosylation): one unit/ml enzyme, peak area of transferred product to total peak area
Method: as §1

Compound	Transfer of a glucosyl residue (Transglucosylation) (trehalose phosphorylase [1])	Transfer of a glucosyl residue (Transglucosylation) (trehalose phosphorylase [2])	Transglucosylation to the polyalcohol, stated in words (trehalose phosphorylase [2])
OC[C@H]1O[C@H](OCC2O[C@@H](O)[C@H](O)[C@@H](O)[C@@H]2O)[C@H](O)[C@@H](O)[C@H]1O (stereo partly shown) [Melibiose]	+++ (the area of 60% or higher)		
OC[C@H]1O[C@H](OC[C@H]2OC(O)[C@H](O)[C@@H](O)[C@@H]2O)[C@H](O)[C@@H](O)[C@@H]1O (stereo partly shown) [Isomaltose]	+++ (the area of 60% or higher)		
OCC(O)CO [Glycerol]		+ (0% or higher but less than 30%)	transferred a glucosyl residue
O=C[C@H](O)[C@@H](O)[C@H](O)[C@H](O)C(=O)O [Glucuronic acid]	+ (0% or higher but less than 30%)		
OC[C@@H](O)[C@@H](O)[C@@H](O)CO [Ribitol]		+ (0% or higher but less than 30%)	transferred a glucosyl residue
O[C@H]1[C@H](O)[C@@H](O)[C@H](O)[C@@H](O)[C@H]1O [myo-Inositol]		++ (30% or higher but less than 60%)	transferred a glucosyl residue
OC[C@H]1O[C@H](O[C@H]2[C@H](O)[C@@H](O)[C@@H](OC[C@H]3OC(O)[C@H](O)[C@@H](O)[C@@H]3O)O[C@@H]2CO)[C@H](O)[C@@H](O)[C@@H]1O (stereo partly shown) [Isopanose]	+++ (the area of 60% or higher)		
Gentiobiose	+++ (the area of 60% or higher)		
OC[C@@H](O)[C@@H](O)[C@H](O)[C@@H](O)CO [Sorbitol]		−*	no transglucosylation
OC[C@@H](O)[C@@H](O)CO [Erythritol]		+ (0% or higher but less than 30%)	transferred a glucosyl residue
OC[C@H]1O[C@H](OC[C@H]2O[C@H](OC[C@H]3OC(O)[C@H](O)[C@@H](O)[C@@H]3O)[C@H](O)[C@@H](O)[C@@H]2O)[C@H](O)[C@@H](O)[C@@H]1O (stereo partly shown) [Isomaltotriose]	+++ (the area of 60% or higher)		
